From patent publication US7138404B2, “4-aminopyrimidine derivatives” (Hoffmann-La Roche Inc., priority 2001, dated 2006)

Key:
rat mGlu 5a receptor = biological target: T1, rat mGlu 5a receptor (Rattus norvegicus, UniProt P31424); assay: [Ca2+]i measurement (FLIPR) on mGlu 5a transfected EBNA cells, antagonist mode; assay type: cell-based; conditions: rat mGlu 5a transiently transfected EBNA cells; Fluo 3-AM; tested against 10 μM glutamate as agonist
T1 construct: expressed in transfected cells; host or cells: EBNA cells (transient transfection)
T1 sequence (P31424 21-1171 isoform P31424-2 limits assumed): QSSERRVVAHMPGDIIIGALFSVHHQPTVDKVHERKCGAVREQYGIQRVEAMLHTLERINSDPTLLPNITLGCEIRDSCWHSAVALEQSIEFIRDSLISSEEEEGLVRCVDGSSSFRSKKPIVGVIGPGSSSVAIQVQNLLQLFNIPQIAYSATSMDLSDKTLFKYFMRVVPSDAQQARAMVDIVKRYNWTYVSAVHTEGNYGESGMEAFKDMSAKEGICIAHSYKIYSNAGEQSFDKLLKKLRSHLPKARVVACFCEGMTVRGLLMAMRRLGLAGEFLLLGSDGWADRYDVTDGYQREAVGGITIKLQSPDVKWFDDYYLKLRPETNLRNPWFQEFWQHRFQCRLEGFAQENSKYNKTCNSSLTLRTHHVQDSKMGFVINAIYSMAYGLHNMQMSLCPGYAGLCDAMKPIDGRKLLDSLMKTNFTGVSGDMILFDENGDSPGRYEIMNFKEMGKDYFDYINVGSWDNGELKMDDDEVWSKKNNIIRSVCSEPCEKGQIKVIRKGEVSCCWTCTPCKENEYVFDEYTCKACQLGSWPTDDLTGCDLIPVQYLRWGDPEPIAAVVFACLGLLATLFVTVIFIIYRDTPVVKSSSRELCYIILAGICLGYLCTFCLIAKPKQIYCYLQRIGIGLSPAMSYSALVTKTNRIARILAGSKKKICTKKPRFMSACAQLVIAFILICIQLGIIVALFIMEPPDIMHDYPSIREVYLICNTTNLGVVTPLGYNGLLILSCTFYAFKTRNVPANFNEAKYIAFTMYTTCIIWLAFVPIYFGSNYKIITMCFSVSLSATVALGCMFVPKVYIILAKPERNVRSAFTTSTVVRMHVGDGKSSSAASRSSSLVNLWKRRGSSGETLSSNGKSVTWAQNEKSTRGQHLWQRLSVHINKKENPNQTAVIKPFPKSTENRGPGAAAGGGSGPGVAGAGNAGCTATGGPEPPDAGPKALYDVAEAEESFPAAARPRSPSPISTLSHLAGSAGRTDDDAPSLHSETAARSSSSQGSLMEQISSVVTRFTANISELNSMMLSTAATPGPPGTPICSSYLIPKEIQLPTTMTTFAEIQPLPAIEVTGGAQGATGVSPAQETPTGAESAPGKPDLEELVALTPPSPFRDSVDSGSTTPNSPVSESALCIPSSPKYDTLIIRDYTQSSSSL
Protocol: The pharmacological activity of the compounds was tested using the following method:
cDNA encoding rat mGlu 5a receptor was transiently transfected into EBNA cells using a procedure described by E. -J. Schlaeger and K. Christensen (Cytotechnology 1998, 30, 71–83). [Ca^2+]i measurements were performed on mGlu 5a transfected EBNA cells after incubation of the cells with Fluo 3-AM (obtainable by FLUKA, 0.5 μM final concentration) for 1 hour at 37° C. followed by 4 washes with assay buffer (DMEM supplemented with Hank's salt and 20 mM HEPES. [Ca^2+]i measurements were done using a fluorometric imaging plate reader (FLIPR, Molecular Devices Corporation, La Jolla, Calif., USA). When compounds were evaluated as antagonists they were tested against 10 μM glutamate as agonist.
The inhibition (antagonists) curves were fitted with a four parameter logistic equation giving IC50, and Hill coefficient using the iterative non linear curve fitting software Origin (Microcal Software Inc., Northampton, Mass., USA).

Structure (SMILES)	IC50 (rat mGlu 5a receptor)	melting point
CCOC(=O)CSc1ncc(Cc2ccccc2)c(N)n1 [Example 3, (4-Amino-5-benzyl-pyrimidin-2-ylsulfanyl)-acetic acid ethyl ester]	140 nM	
CCOC(=O)CSc1ncc(Cc2cccn2C)c(N)n1 [Example 4, [4-Amino-5-(1-methyl-1H-pyrrol-2-ylmethyl)-pyrimidin-2-ylsulfanyl]-acetic acid ethyl ester]	380 nM	
CCOC(=O)CSc1ncc(-c2ccc(Cl)cc2Cl)c(N)n1 [Example 5, [4-Amino-5-(2,4-dichloro-phenyl)-pyrimidin-2-ylsulfanyl]-acetic acid ethyl ester]	3850 nM	
CCOC(=O)CSc1ncc(Cc2ccc(Br)cc2)c(N)n1 [Example 6, [4-Amino-5-(4-bromo-benzyl)-pyrimidin-2-ylsulfanyl]-acetic acid ethyl ester]	180 nM	
C#CCSc1ncc(Cc2cccs2)c(N)n1 [Example 8, 2-Prop-2-ynylsulfanyl-5-thiophen-2-ylmethyl-pyrimidin-4-ylamine]	1390 nM	
C=CCSc1ncc(Cc2cccs2)c(N)n1 [Example 9, 2-Allylsulfanyl-5-thiophen-2-ylmethyl-pyrimidin-4-ylamine]	2790 nM	
Nc1nc(SCc2ncon2)ncc1Cc1cccs1 [Example 11, 2-([1,2,4]Oxadiazol-3-ylmethylsulfanyl)-5-thiophen-2-ylmethyl-pyrimidin-4-ylamine]	400 nM	
CCOC(=O)CSc1ncc(Cc2ccsc2)c(N)n1 [Example 12, (4-Amino-5-thiophen-3-ylmethyl-pyrimidin-2-ylsulfanyl)-acetic acid ethyl ester]	180 nM	
CCOC(=O)CSc1ncc(Cc2ccoc2)c(N)n1 [Example 13, (4-Amino-5-furan-3-ylmethyl-pyrimidin-2-ylsulfanyl)-acetic acid ethyl ester]	160 nM	
CCOC(=O)CSc1ncc(C(=O)OCC)c(N)n1 [Example 19, 4-Amino-2-ethoxycarbonylmethylsulfanyl-pyrimidine-5-carboxylic acid ethyl ester]	270 nM	
CCNc1nc(SCC(=O)OCC)ncc1Cc1cccs1 [Example 21, (4-Ethylamino-5-thiophen-2-ylmethyl-pyrimidin-2-ylsulfanyl)-acetic acid ethyl ester]	600 nM	
C=CCOC(=O)CSc1ncc(Cc2ccccc2)c(N)n1 [Example 22, (4-Amino-5-benzyl-pyrimidin-2-ylsulfanyl)-acetic acid allyl ester]	120 nM	
CC1CC1COC(=O)CSc1ncc(Cc2ccccc2)c(N)n1 (centres unmarked) [Example 24, (4-Amino-5-benzyl-pyrimidin-2-ylsulfanyl)-acetic acid 2-methyl-cyclopropylmethyl ester]	630 nM	
Nc1nc(SCC(=O)OCC2CCC2)ncc1Cc1ccccc1 [Example 25, (4-Amino-5-benzyl-pyrimidin-2-ylsulfanyl)-acetic acid cyclobutylmethyl ester]	1460 nM	
Nc1nc(SCC(=O)OCC2CC2)ncc1Cc1ccccc1 [Example 29, (4-Amino-5-benzyl-pyrimidin-2-ylsulfanyl)-acetic acid cyclopropylmethyl ester]	200 nM	
CCOC(=O)CSc1ncc(Cc2cccs2)c(NCC(C)C)n1 [Example 31]	160 nM	
Nc1nc(SCc2nc(C3CC3)no2)ncc1Cc1ccccc1 [Example 33, 5-Benzyl-2-(3-cyclopropyl-[1,2,4]oxadiazol-5-ylmethylsulfanyl)-pyrimidin-4-ylamine]		94 °C
